Data set [1] addresses AKT1/PKBa (Homo sapiens, UniProt P31749). The experiment in a line: AKT1/PKBa kinase assay. Particulars: 10 μM compound; read-out: AKT1/PKBa percent of inhibition. It is filed as biochemical. The gist of the method: (§1)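 33P incorporation counted after filter-plate capture. Reactions held compound at 10 μM final, ATP at its Km with 12.5 μCi/ml [γ-33P]ATP, substrate 5× Km, enzyme giving 10% ATP turnover; 1 h, room temperature, stopped with EDTA.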

Data set [2] addresses RSK1 (Homo sapiens, UniProt Q15418). In words: RSK1 kinase assay. In kind it is biochemical. Particulars: 10 μM compound; read-out: RSK1 percent of inhibition. The method in brief:
as §1

Data set [3] has as its target CK1-alpha (Homo sapiens, UniProt P48729). The experiment in a line: CK1-alpha kinase assay. It is filed as biochemical. The following applies: 10 μM compound; read-out: CK1-alpha percent of inhibition. The gist of the method: as §1
Data set [4] has as its target T1, IKK-beta (Homo sapiens, UniProt O14920).
T1 sequence (O14920 1-756): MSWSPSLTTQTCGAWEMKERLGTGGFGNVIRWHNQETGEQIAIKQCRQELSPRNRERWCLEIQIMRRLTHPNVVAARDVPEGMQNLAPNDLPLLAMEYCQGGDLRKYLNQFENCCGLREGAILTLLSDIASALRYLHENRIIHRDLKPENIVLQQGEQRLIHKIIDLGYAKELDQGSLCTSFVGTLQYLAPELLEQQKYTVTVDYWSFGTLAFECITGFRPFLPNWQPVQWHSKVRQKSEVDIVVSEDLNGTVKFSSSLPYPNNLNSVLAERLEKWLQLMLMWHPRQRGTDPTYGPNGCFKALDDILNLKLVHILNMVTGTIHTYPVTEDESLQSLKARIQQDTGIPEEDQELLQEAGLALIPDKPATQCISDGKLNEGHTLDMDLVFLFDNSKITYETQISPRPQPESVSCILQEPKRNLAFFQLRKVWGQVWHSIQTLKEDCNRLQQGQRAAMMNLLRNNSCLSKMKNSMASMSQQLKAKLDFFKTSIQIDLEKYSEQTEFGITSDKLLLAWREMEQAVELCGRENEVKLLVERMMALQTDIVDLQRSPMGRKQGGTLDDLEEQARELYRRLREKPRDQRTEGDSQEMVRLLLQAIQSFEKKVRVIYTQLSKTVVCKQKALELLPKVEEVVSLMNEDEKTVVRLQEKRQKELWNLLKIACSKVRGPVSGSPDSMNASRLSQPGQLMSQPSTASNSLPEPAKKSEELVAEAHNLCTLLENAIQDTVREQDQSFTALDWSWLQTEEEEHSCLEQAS
The experiment in a line: IKK-beta kinase assay. It is filed as biochemical. The following applies: 10 μM compound; read-out: IKK-beta percent of inhibition. The gist of the method: as §1

Data set [5] concerns the target EGFR (Homo sapiens, UniProt P00533). The experiment in a line: EGFR kinase assay (33P-ATP filter plate). It is filed as biochemical. The following applies: for inhibition at 10 µM: 10 μM compound, read-out: EGFR percent of inhibition; for IC50: EGFR-PTK assay. The method in brief:
as §1

Data set [6] has as its target SRPK1 (Homo sapiens, UniProt Q96SB4). In words: SRPK1 kinase assay. It is filed as biochemical. Particulars: 10 μM compound; read-out: SRPK1 percent of inhibition. The method in brief:
as §1

Data set [7] has as its target CDK2/CycA (Homo sapiens, UniProt P24941). The experiment in a line: CDK2/CycA kinase assay. The following applies: 10 μM compound; read-out: CDK2/CycA percent of inhibition. It is filed as biochemical. The gist of the method:
as §1

The target in data set [8] is c-Raf (Homo sapiens, UniProt P04049). In words: c-Raf kinase assay. In kind it is biochemical. The following applies: 10 μM compound; read-out: c-Raf percent of inhibition. The gist of the method:
as §1

In data set [9] the target is GSK-3beta (Homo sapiens, UniProt P49841). The experiment in a line: GSK-3beta kinase assay. In kind it is biochemical. Particulars: 10 μM compound; read-out: GSK-3beta percent of inhibition. The method in brief: as §1
Data set [10] has as its target P70S6K (Homo sapiens, UniProt P23443). The experiment in a line: P70S6K kinase assay. It is filed as biochemical. Particulars: 10 μM compound; read-out: P70S6K percent of inhibition. The gist of the method: as §1
Data set [11] deals with PDGFR-beta (Homo sapiens, UniProt P09619). In words: PDGFR-beta kinase assay. In kind it is biochemical. Particulars: 10 μM compound; read-out: PDGFR-beta percent of inhibition. The method in brief:
as §1

The target of data set [12] is ROCK2 (Homo sapiens, UniProt O75116). In words: ROCK2 kinase assay. In kind it is biochemical. Particulars: 10 μM compound; read-out: ROCK2 percent of inhibition. The method in brief:
as §1

In data set [13] the target is c-Src (Homo sapiens, UniProt P12931). The experiment in a line: c-Src kinase assay. In kind it is biochemical. Particulars: 10 μM compound; read-out: c-Src percent of inhibition. The method in brief:
as §1

Data set [14] concerns the target InsR (Homo sapiens, UniProt P06213). In words: InsR kinase assay. It is filed as biochemical. Particulars: 10 μM compound; read-out: InsR percent of inhibition. The method in brief:
as §1

The target of data set [15] is Abl (Homo sapiens, UniProt P00519). In words: Abl kinase assay. In kind it is biochemical. The following applies: 10 μM compound; read-out: Abl percent of inhibition. The method in brief:
as §1

Data set [16] concerns the target Jnk1a1 (Homo sapiens, UniProt P45983). In words: Jnk1a1 kinase assay. It is filed as biochemical. The following applies: 10 μM compound; read-out: Jnk1a1 percent of inhibition. The method in brief:
as §1

Data set [17] concerns the target Kit (Homo sapiens, UniProt P10721). The experiment in a line: Kit kinase assay. Particulars: 10 μM compound; read-out: Kit percent of inhibition. It is filed as biochemical. The method in brief:
as §1

For data set [18], the target named is cMet (Homo sapiens, UniProt P08581). In words: cMet kinase assay. In kind it is biochemical. Particulars: 10 μM compound; read-out: cMet percent of inhibition. The gist of the method:
as §1

Data set [19] deals with MAPK-ERK1 (Homo sapiens, UniProt P27361). In words: MAPK-ERK1 kinase assay. It is filed as biochemical. The following applies: 10 μM compound; read-out: MAPK-ERK1 percent of inhibition. The gist of the method: as §1
Data set [20] has as its target P56Lck (Homo sapiens, UniProt P06239). In words: P56Lck kinase assay. It is filed as biochemical. The following applies: 10 μM compound; read-out: P56Lck percent of inhibition. The method in brief:
as §1

c-Raf, sequence (P04049 whole entry, species assumed): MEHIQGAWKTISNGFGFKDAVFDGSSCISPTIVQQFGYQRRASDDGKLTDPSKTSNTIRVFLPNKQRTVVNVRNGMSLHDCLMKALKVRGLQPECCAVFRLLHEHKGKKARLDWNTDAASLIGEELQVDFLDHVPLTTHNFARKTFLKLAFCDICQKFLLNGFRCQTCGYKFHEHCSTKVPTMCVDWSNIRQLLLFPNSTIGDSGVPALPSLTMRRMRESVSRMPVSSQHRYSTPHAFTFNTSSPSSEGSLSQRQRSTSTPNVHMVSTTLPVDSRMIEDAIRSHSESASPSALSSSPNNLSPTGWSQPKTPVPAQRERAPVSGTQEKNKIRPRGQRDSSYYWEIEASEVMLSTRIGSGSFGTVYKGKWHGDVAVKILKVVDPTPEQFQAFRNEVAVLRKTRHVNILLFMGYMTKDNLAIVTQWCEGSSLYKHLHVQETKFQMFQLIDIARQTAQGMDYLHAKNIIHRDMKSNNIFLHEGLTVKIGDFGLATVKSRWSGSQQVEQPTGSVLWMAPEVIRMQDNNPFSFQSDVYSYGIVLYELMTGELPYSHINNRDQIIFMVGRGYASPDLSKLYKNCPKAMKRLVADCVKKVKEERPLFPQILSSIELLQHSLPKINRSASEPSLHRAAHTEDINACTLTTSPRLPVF
PDGFR-beta, sequence (P09619 33-1106, species assumed): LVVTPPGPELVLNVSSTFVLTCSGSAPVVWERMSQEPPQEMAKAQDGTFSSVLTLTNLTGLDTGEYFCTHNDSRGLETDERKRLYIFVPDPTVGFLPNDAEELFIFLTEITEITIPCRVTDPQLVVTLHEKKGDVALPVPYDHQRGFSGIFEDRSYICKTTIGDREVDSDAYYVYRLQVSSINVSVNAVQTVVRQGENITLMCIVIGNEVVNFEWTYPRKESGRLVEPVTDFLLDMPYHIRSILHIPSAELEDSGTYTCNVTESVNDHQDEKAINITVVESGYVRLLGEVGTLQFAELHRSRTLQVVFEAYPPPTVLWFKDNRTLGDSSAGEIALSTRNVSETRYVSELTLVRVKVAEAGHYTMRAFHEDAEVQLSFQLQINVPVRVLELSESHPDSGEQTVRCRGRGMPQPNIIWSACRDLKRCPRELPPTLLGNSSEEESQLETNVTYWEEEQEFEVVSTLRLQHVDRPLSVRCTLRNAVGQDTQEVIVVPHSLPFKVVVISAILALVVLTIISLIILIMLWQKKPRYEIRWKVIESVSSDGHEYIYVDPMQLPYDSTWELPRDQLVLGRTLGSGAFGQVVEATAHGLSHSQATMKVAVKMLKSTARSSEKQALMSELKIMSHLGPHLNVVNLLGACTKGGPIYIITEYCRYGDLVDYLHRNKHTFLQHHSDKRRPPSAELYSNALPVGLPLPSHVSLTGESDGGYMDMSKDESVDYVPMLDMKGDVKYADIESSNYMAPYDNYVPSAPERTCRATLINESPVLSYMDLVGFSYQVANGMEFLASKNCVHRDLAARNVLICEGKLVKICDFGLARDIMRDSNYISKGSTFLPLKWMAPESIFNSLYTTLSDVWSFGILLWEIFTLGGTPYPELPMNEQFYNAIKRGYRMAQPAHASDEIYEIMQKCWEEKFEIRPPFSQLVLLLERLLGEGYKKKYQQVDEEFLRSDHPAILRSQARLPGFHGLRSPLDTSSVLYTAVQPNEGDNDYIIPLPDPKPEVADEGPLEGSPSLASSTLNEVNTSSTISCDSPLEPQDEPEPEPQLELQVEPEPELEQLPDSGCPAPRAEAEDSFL
GSK-3beta, sequence (P49841 whole entry, species assumed): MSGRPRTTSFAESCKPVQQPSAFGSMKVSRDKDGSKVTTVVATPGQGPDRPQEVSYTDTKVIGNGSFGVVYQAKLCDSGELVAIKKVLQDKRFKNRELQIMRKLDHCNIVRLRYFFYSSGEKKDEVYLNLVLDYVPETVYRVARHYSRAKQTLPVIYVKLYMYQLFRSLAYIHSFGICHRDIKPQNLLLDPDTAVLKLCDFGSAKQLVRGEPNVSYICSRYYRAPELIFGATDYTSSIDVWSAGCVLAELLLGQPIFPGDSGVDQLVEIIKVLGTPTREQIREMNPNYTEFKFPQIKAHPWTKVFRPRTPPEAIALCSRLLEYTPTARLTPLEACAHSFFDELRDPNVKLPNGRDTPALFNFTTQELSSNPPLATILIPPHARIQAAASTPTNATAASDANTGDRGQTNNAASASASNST
MAPK-ERK1, sequence (P27361 whole entry): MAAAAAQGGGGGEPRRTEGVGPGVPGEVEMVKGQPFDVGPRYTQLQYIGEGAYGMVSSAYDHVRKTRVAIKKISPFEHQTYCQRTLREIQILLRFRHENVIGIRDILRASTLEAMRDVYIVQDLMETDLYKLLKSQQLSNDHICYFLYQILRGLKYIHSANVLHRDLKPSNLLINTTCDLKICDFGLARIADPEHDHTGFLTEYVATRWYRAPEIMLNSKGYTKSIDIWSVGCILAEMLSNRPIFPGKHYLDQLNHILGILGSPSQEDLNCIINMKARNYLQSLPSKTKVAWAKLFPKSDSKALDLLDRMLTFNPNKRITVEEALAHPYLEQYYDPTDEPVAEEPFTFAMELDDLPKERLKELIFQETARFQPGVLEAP
EGFR, sequence (P00533 25-1210): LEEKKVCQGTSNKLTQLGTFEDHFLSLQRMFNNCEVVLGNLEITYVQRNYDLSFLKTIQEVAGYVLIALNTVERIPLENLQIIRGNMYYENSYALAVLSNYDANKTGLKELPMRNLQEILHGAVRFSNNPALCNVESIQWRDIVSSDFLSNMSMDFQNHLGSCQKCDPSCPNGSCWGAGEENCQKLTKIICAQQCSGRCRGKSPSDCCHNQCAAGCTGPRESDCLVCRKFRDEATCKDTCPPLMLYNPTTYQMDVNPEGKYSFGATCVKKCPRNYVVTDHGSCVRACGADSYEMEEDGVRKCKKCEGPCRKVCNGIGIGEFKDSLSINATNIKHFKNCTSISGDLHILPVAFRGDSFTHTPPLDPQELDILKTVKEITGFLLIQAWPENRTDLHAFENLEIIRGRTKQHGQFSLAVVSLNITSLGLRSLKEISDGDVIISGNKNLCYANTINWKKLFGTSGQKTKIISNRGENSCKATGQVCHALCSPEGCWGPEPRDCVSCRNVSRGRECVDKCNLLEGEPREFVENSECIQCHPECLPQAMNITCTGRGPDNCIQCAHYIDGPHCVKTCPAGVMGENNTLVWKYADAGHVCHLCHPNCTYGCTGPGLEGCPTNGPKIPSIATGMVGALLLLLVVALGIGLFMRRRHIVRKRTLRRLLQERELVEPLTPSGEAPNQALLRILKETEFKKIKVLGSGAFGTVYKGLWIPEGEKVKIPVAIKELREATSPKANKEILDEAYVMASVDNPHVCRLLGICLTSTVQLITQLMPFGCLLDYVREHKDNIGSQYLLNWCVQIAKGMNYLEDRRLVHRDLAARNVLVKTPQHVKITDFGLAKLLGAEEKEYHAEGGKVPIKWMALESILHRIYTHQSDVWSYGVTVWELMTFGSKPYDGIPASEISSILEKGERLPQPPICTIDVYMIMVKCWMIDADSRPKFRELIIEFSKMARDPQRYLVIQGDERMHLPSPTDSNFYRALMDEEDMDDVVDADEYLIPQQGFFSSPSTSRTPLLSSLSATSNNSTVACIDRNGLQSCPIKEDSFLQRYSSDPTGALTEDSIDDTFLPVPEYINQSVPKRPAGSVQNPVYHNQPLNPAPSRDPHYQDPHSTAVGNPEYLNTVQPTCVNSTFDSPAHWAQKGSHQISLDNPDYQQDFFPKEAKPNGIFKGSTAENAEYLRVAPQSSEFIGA
P70S6K, sequence (P23443 whole entry): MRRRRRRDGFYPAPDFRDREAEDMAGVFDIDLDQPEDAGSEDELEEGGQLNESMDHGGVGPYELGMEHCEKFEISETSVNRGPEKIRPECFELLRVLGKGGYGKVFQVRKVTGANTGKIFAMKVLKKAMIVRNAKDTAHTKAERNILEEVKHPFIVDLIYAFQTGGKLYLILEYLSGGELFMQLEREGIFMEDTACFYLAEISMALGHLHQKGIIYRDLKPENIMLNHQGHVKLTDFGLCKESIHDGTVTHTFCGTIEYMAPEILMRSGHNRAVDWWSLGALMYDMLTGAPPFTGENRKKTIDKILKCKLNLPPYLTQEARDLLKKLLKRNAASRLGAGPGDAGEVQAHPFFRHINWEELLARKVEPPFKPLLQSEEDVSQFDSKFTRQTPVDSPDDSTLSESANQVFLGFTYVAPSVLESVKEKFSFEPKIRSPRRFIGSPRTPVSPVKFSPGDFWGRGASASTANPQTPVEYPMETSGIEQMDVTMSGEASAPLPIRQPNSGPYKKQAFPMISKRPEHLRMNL
AKT1/PKBa, sequence (P31749 whole entry): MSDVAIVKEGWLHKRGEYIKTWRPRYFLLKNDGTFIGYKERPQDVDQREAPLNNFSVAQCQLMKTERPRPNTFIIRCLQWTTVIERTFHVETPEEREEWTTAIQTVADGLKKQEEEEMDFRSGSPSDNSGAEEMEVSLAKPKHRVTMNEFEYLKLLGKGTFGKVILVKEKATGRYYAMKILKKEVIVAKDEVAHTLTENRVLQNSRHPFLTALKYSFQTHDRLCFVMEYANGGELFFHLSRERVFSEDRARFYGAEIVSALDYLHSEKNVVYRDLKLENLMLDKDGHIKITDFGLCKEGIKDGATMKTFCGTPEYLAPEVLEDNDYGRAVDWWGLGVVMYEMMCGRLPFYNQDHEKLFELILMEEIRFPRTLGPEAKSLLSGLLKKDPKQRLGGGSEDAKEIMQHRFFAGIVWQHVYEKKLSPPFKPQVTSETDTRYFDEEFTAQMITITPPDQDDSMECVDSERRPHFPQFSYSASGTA
CK1-alpha, sequence (P48729 whole entry): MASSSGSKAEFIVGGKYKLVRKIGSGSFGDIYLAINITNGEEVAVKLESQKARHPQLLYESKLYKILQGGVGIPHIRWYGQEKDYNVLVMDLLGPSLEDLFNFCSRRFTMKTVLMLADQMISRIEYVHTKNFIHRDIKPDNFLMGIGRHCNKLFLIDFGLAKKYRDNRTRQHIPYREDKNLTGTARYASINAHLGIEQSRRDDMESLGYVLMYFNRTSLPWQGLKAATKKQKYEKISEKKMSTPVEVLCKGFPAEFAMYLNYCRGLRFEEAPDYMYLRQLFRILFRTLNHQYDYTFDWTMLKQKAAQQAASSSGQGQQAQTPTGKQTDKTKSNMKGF

On to `Fc1cccc(Nc2ncnc3sc4ccccc4c23)c1` [Compound 21, Benzo[4,5]thieno[2,3-d]pyrimidin-4-yl-(3-fluoro-phenyl)-amine], for which the melting point – broadly, the temperature, or range, at which the solid turns liquid – turned out to be 171 °C. Further, the inhibition at 10 µM in data set [1] was determined as 3%. Also, the inhibition at 10 µM in data set [2] came out at 1%. Also, in data set [3], the inhibition at 10 µM came out at 0%. The inhibition at 10 µM in data set [4] stood at 2%. Besides, in data set [5], the inhibition at 10 µM worked out at 98% and the IC50 (usually the concentration that gives 50% inhibition) turned out to be 26.9 nM. In addition, the inhibition at 10 µM in data set [6] was determined as 8%. Also, the inhibition at 10 µM in data set [7] was -10%. The inhibition at 10 µM in [8] was -2%. The inhibition at 10 µM in data set [9] came out at 3%. The inhibition at 10 µM in [10] came to 7%. The inhibition at 10 µM in [11] is -3%. For the same compound, the inhibition at 10 µM in [12] was determined as 4%. In [13], the inhibition at 10 µM was found to be 3%. Also, the inhibition at 10 µM in [14] came out at 7%. Besides, in [15], the inhibition at 10 µM was -4%. For the same compound, in data set [16], the inhibition at 10 µM is -2%. The inhibition at 10 µM in data set [17] was -4%. Moreover, the inhibition at 10 µM in [18] is 1%. In [19], the inhibition at 10 µM is 1%. Moreover, in [20], the inhibition at 10 µM is -9%.
`Clc1cccc(Nc2ncnc3sc4ccccc4c23)c1` [Compound 22, Benzo[4,5]thieno[2,3-d]pyrimidin-4-yl-(3-chloro-phenyl)-amine] showed a melting point of 168 °C. In data set [1], the inhibition at 10 µM is -7%. Besides, the inhibition at 10 µM in [2] is -2%. For the same compound, the inhibition at 10 µM in [3] was -2%. Besides, the inhibition at 10 µM in data set [4] was 11%. For the same compound, in data set [5], the inhibition at 10 µM amounted to 98%. The inhibition at 10 µM in [6] is 6%. Also, in data set [7], the inhibition at 10 µM is -6%. Besides, in [8], the inhibition at 10 µM was -6%. Also, the inhibition at 10 µM in data set [9] was determined as 5%. Moreover, the inhibition at 10 µM in data set [10] is 5%. Moreover, in [11], the inhibition at 10 µM is -8%. Moreover, the inhibition at 10 µM in [12] was 4%. The inhibition at 10 µM in data set [13] amounted to 9%. For the same compound, the inhibition at 10 µM in [14] came out at 18%. For the same compound, the inhibition at 10 µM in [15] was found to be 8%. For the same compound, the inhibition at 10 µM in [16] was determined as 0%. Moreover, the inhibition at 10 µM in data set [17] was found to be 1%. Further, the inhibition at 10 µM in [18] worked out at 5%. In data set [19], the inhibition at 10 µM was determined as 5%. In addition, the inhibition at 10 µM in data set [20] is 11%.
For `Brc1cccc(Nc2ncnc3sc4ccccc4c23)c1` [Compound 23, Benzo[4,5]thieno[2,3-d]pyrimidin-4-yl-(3-bromo-phenyl)-amine], the melting point is 160 °C. The inhibition at 10 µM in data set [1] worked out at 9%. The inhibition at 10 µM in data set [2] is -4%. The inhibition at 10 µM in [3] was 7%. Besides, the inhibition at 10 µM in data set [4] is -5%. Also, in [5], the inhibition at 10 µM was 99% and the IC50 amounted to 8.08 nM. Besides, in data set [6], the inhibition at 10 µM was determined as 6%. In data set [7], the inhibition at 10 µM is 12%. For the same compound, in data set [8], the inhibition at 10 µM was 3%. Also, the inhibition at 10 µM in [9] is -3%. Moreover, the inhibition at 10 µM in data set [10] is -1%. In addition, the inhibition at 10 µM in data set [11] came to 10%. The inhibition at 10 µM in [12] is 2%. Further, in data set [13], the inhibition at 10 µM stood at 7%. Also, the inhibition at 10 µM in data set [14] came out at 4%. The inhibition at 10 µM in data set [15] was -10%. The inhibition at 10 µM in [16] is -10%. In addition, in data set [17], the inhibition at 10 µM was found to be 6%. Besides, the inhibition at 10 µM in data set [18] was 4%. Further, the inhibition at 10 µM in data set [19] was found to be 8%. Further, the inhibition at 10 µM in data set [20] came out at 4%.

(Values after patent US8802849B2, “Tricyclic benzo[4,5]thieno-[2,3-d]pyrimidine-4-yl-amin derivatives, their salts, process for producing the compounds and their pharmaceutical use” (Vichem Chemie Kutató Kft., priority 2008, dated 2014).)
